# Laboratory results taken from patent US6919348B2, “Therapeutic 1,2,3,6-tetrahydropyrimidine-2-one compositions and methods therewith” (priority 2002, dated 2005).
# Where two headings read alike, the source gives them in different places.
# Legend:
# [1] = Solubility in solvents; format: physicochemical
# Experimental: (§1) Icilin is a lemon yellow crystalline powder with a molecular weight of 311 Daltons and a melting point of 229 to 231° C. […] Thus, icilin would be considered as a lipophilic, hydrophobic compound that is not easily miscible with aqueous systems. Analogs of icilin, for example, with acetyoxy, ethyl, fluoro, or trifluoromethyl substitutions, retain similar chemical and physical properties and are included within the scope of this invention.
# Menthol, by contrast, is a white crystal with a molecular weight of 156 Daltons and a melting point of 41 to 43° C., a temperature slightly above body temperature. […] Some analogs of menthol, e.g. (+)-neomenthol are colorless liquids at room temperature.
# [2] = system: surfaces of the human body; experiment: Irritation upon contact with the surfaces of the human body; format: in vivo
# [3] = system: skin or mucous membranes; experiment: Duration of cooling effect after application to skin or mucous membranes; format: in vivo, human; conditions: applied to the skin or mucous membranes, regardless of dose
# Description: The physico-chemical differences between icilin and menthol confer unique advantages to icilin for manipulating sensory nerve discharges in certain defined clinical situations, as described hereinafter. The first advantage is the site of delivery: menthol cannot be delivered to the eyelids and its environs, the nasal membranes, or the mucous membranes of the anogenital region at high concentrations because it is pungent, stings and irritates. Icilin, on the other hand, can be administered to these sites because it is non-irritating. A second major advantage of icilin is its duration of action. Icilin's actions can be localized at its site of application for a prolonged period because of its lipophilic characteristics and because it can be administered as a powder or dispersed (either in solid form or solubilized) as an emulsion. By contrast, menthol is volatile and rapidly re-distributes and metabolizes in the body so its duration of action is relatively short. For example, icilin applied to nasal membranes can produce refreshing sensations for up to 3 hours.
# In practicing the present invention, the topical administration of icilin relieves itching, especially when given in combination with a menthol analog. […]
# [4] = system: abrasion on finger; experiment: Example 3: application to abrasion wound on finger; format: in vivo, human; conditions: applied directly to abrasion; icilin 0.8 mg
# Experimental: A subject with an abrasion on their finger (caused by friction) of about 1 square centimeter received 0.8 mg of icilin applied directly to the wound with a swab stick.
# [5] = system: lower eyelid; experiment: Example 4: application to lower eyelid; format: in vivo, human; conditions: for duration of cooling/refreshing effect: icilin 10 mg/ml solution
# Experimental: A small quantity of a 10 mg/ml solution of icilin dissolved in propylene glycol was applied with a cotton swab stick to the lower eyelid of a subject. […] This effect lasted for about 45 minutes. […] The eyelids smarted from the harsh irritant actions of menthol. The individual blinked and the eyes were momentarily closed with a small degree of lachrymation. But, after about 1 minute, this discomfort dissipated and the cooling sensations of menthol were felt on the eyelid. The sensations were refreshing and lasted for about 15 minutes and accompanied by a minty odor.
# By contrast, menthol cannot be used in eye drops because of its irritant actions.
# [6] = system: nasal cavity of subject with hay fever; experiment: Examples 5 and 6: nasal administration in subject with hay fever; format: in vivo, human; conditions: for effect on nasal discharge, urge to sneeze, itchy eyelids: inhaled via the nose, hay fever subject
# Experimental: A subject, suffering from hay fever (in this case, seasonal allergy to grass pollen) stopped taking antihistamines for 24 hours and inhaled via the nose 0.5 mg or 2 mg (on 2 separate occasions) of icilin in powder form.
# Icilin, dissolved in propylene glycol, was added to a commercial preparation of an anti-allergy nasal spray containing fluticasone to attain a concentration of about 10 mg icilin/ml solution.
# [7] = Stability at room temperature; format: physicochemical
# Experimental: as §1
# [8] = system: anorectal area of subject with inflamed hemorrhoids; experiment: Example 2: anorectal administration in inflamed hemorrhoids; format: in vivo, human; conditions: icilin 20 mg/ml in propylene glycol admixed with saline laxative, 2 ml emulsion instilled into rectum
# Experimental: A subject with inflamed hemorrhoids self-administered a commercial suppository, shaped as a 1.5-inch bullet, containing 25 mg of hydrocortisone. The suppository was coated with 5 mg of icilin and 5 mg of WS-23, a menthol analog. Cooling sensations were felt within 5 minutes in the anorectal area extending to the scrotum. Relief of discomfort and itch in the anorectal area lasted for longer than 3 hours. In a similar experiment, icilin, dissolved 20 mg/ml in propylene glycol was admixed with a isotonic sodium chloride solution laxative (containing monobasic sodium phosphate and dibasic sodium phosphate salts), and 2 ml of the emulsion was instilled into the rectum. Again, cooling sensations with relief of itch and discomfort were obtained for 2 hours.
# [9] = system: mouth, throat and upper alimentary tract; experiment: Example 7: chewing gum; format: in vivo, human
# Experimental: Two mg of icilin was spread between two wafers of a fruit-flavored chewing gum and chewed for 5 minutes by a subject. […] But after 12 minutes general sensations of coolness were felt in the thoracic internal structures behind the sternum, in the epigastric area. These cooling effects lasted for about 45 minutes. By contrast, the chewing of mentholated gum or mentholated candy, produced after an initial harsh taste, strong cooling of the mouth and throat that lasted only about 10 minutes.
# This experiment illustrates important pharmacokinetic differences between icilin and menthol. The effects of mentholated gum are immediate and localized to the mouth and throat. […] Further protection of the icilin by standard encapsulation technology will allow it to reach the distal portions of the gastrointestinal tract such as the lower ileum and colon where it may exert its pharmacological effects as a cold receptor agonist.
# [10] = system: shaking behavior in the rat; conditions: cited from earlier work
# [11] = system: rats; conditions: cited from earlier work
# [12] = target: TRP(M8) receptor (Rattus norvegicus, UniProt Q8R455); conditions: cloned and transfected TRP(M8) receptor; McKemy et al. 2002; cited from earlier work
# Sequence of TRP(M8) receptor (Q8R455 whole entry): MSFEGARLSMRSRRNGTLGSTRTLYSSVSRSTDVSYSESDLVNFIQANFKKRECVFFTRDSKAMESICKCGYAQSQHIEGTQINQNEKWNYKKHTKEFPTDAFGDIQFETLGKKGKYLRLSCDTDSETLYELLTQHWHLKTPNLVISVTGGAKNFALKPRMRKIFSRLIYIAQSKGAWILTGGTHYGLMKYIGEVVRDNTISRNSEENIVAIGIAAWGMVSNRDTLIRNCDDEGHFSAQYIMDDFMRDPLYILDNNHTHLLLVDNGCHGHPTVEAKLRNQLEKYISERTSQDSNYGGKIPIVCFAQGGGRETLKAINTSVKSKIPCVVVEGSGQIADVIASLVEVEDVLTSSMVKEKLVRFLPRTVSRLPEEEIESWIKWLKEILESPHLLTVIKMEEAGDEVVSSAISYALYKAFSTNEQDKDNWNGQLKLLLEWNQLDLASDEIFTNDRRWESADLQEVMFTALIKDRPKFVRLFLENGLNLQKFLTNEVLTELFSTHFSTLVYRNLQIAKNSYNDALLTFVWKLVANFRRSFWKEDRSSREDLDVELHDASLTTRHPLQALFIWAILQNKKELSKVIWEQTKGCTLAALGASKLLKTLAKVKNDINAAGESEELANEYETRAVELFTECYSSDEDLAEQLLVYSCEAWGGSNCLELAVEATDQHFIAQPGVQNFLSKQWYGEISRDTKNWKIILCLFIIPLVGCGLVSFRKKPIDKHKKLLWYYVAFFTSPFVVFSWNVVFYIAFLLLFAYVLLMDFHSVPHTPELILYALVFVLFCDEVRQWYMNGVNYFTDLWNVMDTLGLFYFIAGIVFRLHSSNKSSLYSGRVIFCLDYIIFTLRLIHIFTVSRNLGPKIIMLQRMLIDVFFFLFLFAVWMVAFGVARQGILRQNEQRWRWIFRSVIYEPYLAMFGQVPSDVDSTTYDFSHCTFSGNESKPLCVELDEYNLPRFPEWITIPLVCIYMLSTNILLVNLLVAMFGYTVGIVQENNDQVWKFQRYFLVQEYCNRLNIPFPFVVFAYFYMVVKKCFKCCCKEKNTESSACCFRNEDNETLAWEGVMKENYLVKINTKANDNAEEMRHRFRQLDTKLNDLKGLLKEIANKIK
# [13] = system: receptors for cold; conditions: cited from earlier work
smiles,measurement,setting,value
"CC1CCC(C(C)C)C(O)C1 (stereo not drawn) [menthol, reference compound]",solubility in ethanol,[1],soluble
same,solubility in water,[1],slightly soluble
same,irritation,"[2]; high concentrations, eyes",irritating to the eyes
same,duration of cooling sensations,[3],15 to 30 min
same,effect on pain and coldness at wound site,[4],did not elicit sensations of coldness or pain reduction
same,irritation of the eyelid,[5],sharp discomfort
same,duration of cooling/refreshing effect,[5]; menthol crystals,about 15 minutes
same,time until discomfort dissipated,[5]; menthol crystals,about 1 minute
same,duration of cooling effect,[6]; 0.8 mg crystals inhaled,25 to 30 min
same,irritation on nasal inhalation,[6]; inhalation of crystals,initial burning sensation
same,"effect on nasal discharge, urge to sneeze, itchy eyelids",[6],No overt beneficial effects
"O=C1NC(c2cccc([N+](=O)[O-])c2)=CCN1c1ccccc1O [icilin, 1-[2-hydroxy]-4-[3-nitrophenyl]-1,2,3,6-tetrahydropyridimine-2-one]",solubility in ethanol and acetone,[1],slightly soluble
same,solubility in water,[1],virtually insoluble
same,solubility in organic solvents,"[1]; dimethylsulfoxide, nitromethane, dimethylacetamide and propanediols",readily soluble
same,stability,[7],stable at room temperature
same,irritation upon contact with body surfaces,[2]; powder,non-irritating
same,duration of cooling sensations with relief of itch and discomfort,[8],2 h
same,effect on pain and coldness at wound site,[4],pain was lessened
same,irritation of the eyelid,[5],without acute irritation
same,onset of prickling sensations of cold,[5]; 10 mg/ml in propylene glycol,≤ 10 min
same,duration of cooling/refreshing effect,[5]; menthol crystals,about 45 minutes
same,duration of sense of free and unobstructed airflow / cold sensations,[6]; 0.5 mg or 2 mg powder inhaled via the nose,about 3 hours
same,duration of refreshing sensations,[6]; applied to nasal membranes,up to 3 hours
same,"effect on nasal discharge, urge to sneeze, itchy eyelids",[6],curtailed and terminated
same,coolness in the mouth or throat,[9]; 2 mg in chewing gum,No sensations of coolness
same,onset of general sensations of coolness,"[9]; 2 mg in chewing gum chewed 5 minutes, behind the sternum, epigastric area",12 min
same,duration of cooling effects,"[9]; 2 mg in chewing gum, thoracic/epigastric area",about 45 minutes
same,potency relative to menthol on shaking behavior,"[10]; rat, molar basis",400 times
same,behavioral syndrome elicited,"[10]; rats and monkeys, accompanied by hyperthermia, hyperactivity and ptosis",wet dog shake behavior
same,"toxicity relative to menthol, by oral median lethal dose",[11],less toxic than menthol
same,potency relative to menthol in eliciting ion channel current changes,[12],about 200 times
same,sensation elicited,[13]; 0.1 mg applied to the dorsum of the tongue,prickling sensations of cold
same,sensation elicited,"[13]; ingestion of 6 mg, on one occasion out of three",sensations of coolness on the cheeks and on the inner surfaces of the arms and legs
